Results on one compound are retold here after ChEMBL document CHEMBL5335819, “Discovery of an ellipticine derivative as TLR3 inhibitor against influenza A virus and SARS-CoV-2” (Bioorg Med Chem Lett, 2024).

The structures appear in SMILES notation. Activity calls are given as the source filed them. No cut-off for these calls is given here.

In series [1] the test system is SARS-CoV-2. The series can be described thus: Antiviral activity against SARS-CoV-2 infected in African green monkey Vero E6 cells. Type of series: functional, organism-based. The following applies: Severe acute respiratory syndrome coronavirus 2, Vero C1008.
Series [2] has as its system Influenza A virus. The series can be described thus: Antiviral activity against Influenza virus infected in TLR3 knockdown human A549 cells assessed as reduction in NP protein level measured after 24 hrs by Western blot analysis. It is filed as functional, organism-based.
Series [3] relates to A549. Put plainly: Reduction in Poly(I:C) induced TLR3 mRNA expression in human A549 cells by qRT-PCR analysis. Type of series: functional, cell-based.
Series [4] has as its system Influenza A virus. The series can be described thus: Antiviral activity against Influenza virus infected in human A549 cells assessed as reduction in virus induced CCL-5 mRNA expression level by qRT-PCR analysis. It is filed as functional, organism-based.
The test system of series [5] is SARS-CoV-2. The series can be described thus: Antiviral activity against SARS-CoV-2 infected in African green monkey Vero E6 cells assessed as inhibition of NP protein by indirect immunofluoresence assay. It is filed as functional, organism-based. The settings on record: Severe acute respiratory syndrome coronavirus 2.
Series [6] relates to Influenza A virus. The series can be described thus: Antiviral activity against Influenza virus infected in TLR3 knockdown human A549 cells by plaque assay. It is filed as functional, organism-based.
In series [7] the test system is Influenza A virus. Put plainly: Antiviral activity against Influenza virus infected in human A549 cells assessed as reduction in virus induced IFN- beta mRNA expression level by qRT-PCR analysis. Type of series: functional, organism-based.
Series [8] is described as follows: Cytotoxicity against human A549 cells assessed as reduction in cell viability incubated for 48 hrs by MTT assay. It is filed as toxicity, cell-based.
Series [9] concerns Influenza A virus. The series can be described thus: Antiviral activity against Influenza A virus A/WSN/33 (H1N1) infected in dog MDCK cells.
Series [10] deals with Toll-like receptor 3 (Homo sapiens) (UniProt O15455). The series can be described thus: Inhibition of human TLR3 expressed in mouse RAW264.7 cells assessed as inhibition of NO production. Type of series: cell-based.
Sequence of Toll-like receptor 3 (Homo sapiens) (O15455 whole entry): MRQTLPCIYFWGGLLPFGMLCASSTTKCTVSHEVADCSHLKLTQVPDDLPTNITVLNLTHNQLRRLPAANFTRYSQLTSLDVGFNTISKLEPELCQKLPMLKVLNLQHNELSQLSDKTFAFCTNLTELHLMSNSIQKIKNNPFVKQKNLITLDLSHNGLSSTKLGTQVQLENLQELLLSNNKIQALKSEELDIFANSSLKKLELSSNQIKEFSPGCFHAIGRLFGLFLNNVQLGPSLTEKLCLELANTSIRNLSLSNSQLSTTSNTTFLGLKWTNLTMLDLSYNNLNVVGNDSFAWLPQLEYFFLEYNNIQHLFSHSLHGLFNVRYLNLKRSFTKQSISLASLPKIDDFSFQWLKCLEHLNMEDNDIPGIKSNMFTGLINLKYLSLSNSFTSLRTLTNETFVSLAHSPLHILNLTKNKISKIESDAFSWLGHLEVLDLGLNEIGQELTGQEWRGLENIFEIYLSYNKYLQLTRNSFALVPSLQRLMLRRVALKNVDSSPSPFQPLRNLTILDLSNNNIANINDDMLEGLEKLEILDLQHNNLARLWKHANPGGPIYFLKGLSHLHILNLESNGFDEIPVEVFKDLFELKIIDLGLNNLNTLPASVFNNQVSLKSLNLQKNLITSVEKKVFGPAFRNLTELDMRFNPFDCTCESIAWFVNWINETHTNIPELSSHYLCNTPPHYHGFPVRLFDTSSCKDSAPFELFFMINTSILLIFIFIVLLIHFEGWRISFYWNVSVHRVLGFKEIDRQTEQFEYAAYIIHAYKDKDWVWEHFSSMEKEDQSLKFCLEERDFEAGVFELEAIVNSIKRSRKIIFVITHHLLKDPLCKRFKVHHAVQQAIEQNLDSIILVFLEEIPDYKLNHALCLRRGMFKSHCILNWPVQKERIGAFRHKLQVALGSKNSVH
In series [11] the test system is Influenza A virus. Put plainly: Antiviral activity against Influenza virus infected in human A549 cells assessed as reduction in virus induced IP-10 mRNA expression level by qRT-PCR analysis. Type of series: functional, organism-based.
The nature of series [12]: Cytotoxicity against human HEK293T cells assessed as reduction in cell viability incubated for 48 hrs by MTT assay. Type of series: toxicity, cell-based, HEK-293T.
Series [13] in a line: Cytotoxicity against African green monkey Vero E6 cells assessed as reduction in cell viability by CCK-8 assay. It is filed as toxicity, cell-based, Vero C1008. The following applies: chlorocebus sabaeus.
Series [14] concerns MDCK. Put plainly: Cytotoxicity against MDCK cells assessed as reduction in cell viability incubated for 48 hrs by MTT assay. The following applies: dog. It is filed as toxicity, cell-based, Canis lupus familiaris.
Series [15] is described as follows: Cytotoxicity against human BEAS-2B cells assessed as reduction in cell viability incubated for 48 hrs by MTT assay. It is filed as toxicity, cell-based.
Series [16] relates to Influenza A virus. The series can be described thus: Antiviral activity against Influenza virus infected in TLR3 human knockdown A549 cells assessed as reduction in PB2 protein level measured after 24 hrs by Western blot analysis. Type of series: functional, organism-based.
The test system of series [17] is Influenza A virus. The series can be described thus: Antiviral activity against Influenza A virus A/Puerto Rico/8/34 (H1N1) infected in dog MDCK cells.

For the compound `COc1ccc2[nH]c3c(C)c4ccncc4c(C)c3c2c1`, the figures for the IC50 in [1], in series [9] and in series [17] were 0.43 µM, 0.33 µM and 0.14 µM, respectively. The outcome in series [2], in [3], in [4], in series [7], in [11] and in series [16] was Active. Moreover, the Activity result in series [5] is “Dose-Dependent Effect”. Further, in series [6], the outcome was inactive. Further, the CC50 at 48 h in [8], in series [12] and in series [15] was 5.33 µM throughout. The inhibition result in series [10] is “Active”. Moreover, the CC50 in [13] was greater than 10 µM; in series [14] it was 5.33 µM.
